The values below come from patent publication US10004701B2, “Methods and compositions for treating infection” (UNIVERSITY OF ROCHESTER, priority 2012, dated 2018).

Holding throughout (assay): AK assay 384-well format, Prestwick library screening
For assay [1], the system named is E. cloacae. It is filed as cell-based, Enterobacter cloacae. As to conditions: 50 μM final drug concentration; for fold induction at 50 µM: Enterobacter cloacae, 3 h.
Assay [2] concerns E. faecium. Format: cell-based, Enterococcus faecium. As to conditions: 50 μM final drug concentration; for fold induction at 50 µM: Enterococcus faecium, 3 h.
For assay [3], the system named is P. aeruginosa. Format: cell-based, Pseudomonas aeruginosa. As to conditions: 50 μM final drug concentration; for fold induction at 50 µM: Pseudomonas aeruginosa, 3 h.
Assay [4] deals with A. baumannii strain 98-37-09. Format: cell-based, Acinetobacter baumannii. As to conditions: 50 μM final drug concentration; for fold induction at 50 µM: Acinetobacter baumannii, 983709, 3 h.
Assay [5] relates to E. coli. It is filed as cell-based, Escherichia coli. The conditions noted are these: 50 μM final drug concentration; for fold induction at 50 µM: Escherichia coli, 3 h.
In assay [6] the test system is K. pneumoniae. It is filed as cell-based, Klebsiella pneumoniae. The conditions noted are these: 50 μM final drug concentration; for fold induction at 50 µM: Klebsiella pneumoniae, 3 h.
Assay [7] has as its system S. aureus strain USA300-0114. Format: cell-based, Staphylococcus aureus. As to conditions: 50 μM final drug concentration; for fold induction at 50 µM: Staphylococcus aureus, USA300, 3 h.
[8] abbreviates: planktonic E. cloacae, positive cutoff 3-fold increase, read-out: AK-based Prestwick library screening result, E. cloacae (fold increase in extracellular AK activity).
Where [9] appears, read: planktonic E. faecium, positive cutoff 3-fold increase, read-out: AK-based Prestwick library screening result, E. faecium (fold increase in extracellular AK activity).
Setting [10] is: planktonic P. aeruginosa, positive cutoff 3-fold increase, read-out: AK-based Prestwick library screening result, P. aeruginosa (fold increase in extracellular AK activity).
Where [11] appears, read: planktonic A. baumannii, positive cutoff 3-fold increase, read-out: AK-based Prestwick library screening result, A. baumannii (fold increase in extracellular AK activity).
[12] abbreviates: planktonic E. coli, positive cutoff 3-fold increase, read-out: AK-based Prestwick library screening result, E. coli (fold increase in extracellular AK activity).
Setting [13] is: planktonic K. pneumoniae, positive cutoff 3-fold increase, read-out: AK-based Prestwick library screening result, K. pneumoniae (fold increase in extracellular AK activity).
[14] abbreviates: planktonic S. aureus, positive cutoff 3-fold increase, read-out: AK-based Prestwick library screening result, S. aureus (fold increase in extracellular AK activity).
Setting [15] is: planktonic, cutoff for positive-scoring molecules 3-fold increase, read-out: AK-based Prestwick Library Screening Results, E. cloacae (fold increase in extracellular AK activity).
The mark [16] stands for this setting: planktonic, cutoff for positive-scoring molecules 3-fold increase, read-out: AK-based Prestwick Library Screening Results, E. faecium (fold increase in extracellular AK activity).
[17] abbreviates: planktonic, cutoff for positive-scoring molecules 3-fold increase, read-out: AK-based Prestwick Library Screening Results, P. aeruginosa (fold increase in extracellular AK activity).
[18] abbreviates: planktonic, cutoff for positive-scoring molecules 3-fold increase, read-out: AK-based Prestwick Library Screening Results, A. baumannii (fold increase in extracellular AK activity).
[19] abbreviates: planktonic, cutoff for positive-scoring molecules 3-fold increase, read-out: AK-based Prestwick Library Screening Results, E. coli (fold increase in extracellular AK activity).
Setting [20] is: planktonic, cutoff for positive-scoring molecules 3-fold increase, read-out: AK-based Prestwick Library Screening Results, K. pneumoniae (fold increase in extracellular AK activity).
Where [21] appears, read: planktonic, cutoff for positive-scoring molecules 3-fold increase, read-out: AK-based Prestwick Library Screening Results, S. aureus (fold increase in extracellular AK activity).

Counter-ions that a name gives are not always drawn. Like-named read-outs stand apart in the source and are kept apart here.

`C=C1[C@@H]2CC[C@H]3[C@]4(C)C[C@H](O[C@@H]5O[C@H](CO)[C@@H](OS(=O)(=O)O)[C@H](OS(=O)(=O)O)[C@H]5OC(=O)CC(C)C)C[C@@H](C(=O)O)[C@H]4CC[C@]3(C2)[C@@H]1O` [Atractyloside potassium salt]: the fold induction at 50 µM in assay [1] (planktonic, […], read-out: AK-based Prestwick Library Screening Results, E. cloacae (fold increase in extracellular AK activity)) amounted to 0.8; in assay [2] (planktonic, […], read-out: AK-based Prestwick Library Screening Results, E. faecium (fold increase in extracellular AK activity)), 0.9; in assay [3] (planktonic, […], read-out: AK-based Prestwick Library Screening Results, P. aeruginosa (fold increase in extracellular AK activity)), 0.6; in assay [4] (planktonic, […], read-out: AK-based Prestwick Library Screening Results, A. baumannii (fold increase in extracellular AK activity)) it was 0.8; in assay [5] (planktonic, […], read-out: AK-based Prestwick Library Screening Results, E. coli (fold increase in extracellular AK activity)) it was 0.7; in assay [6] (planktonic, […], read-out: AK-based Prestwick Library Screening Results, K. pneumoniae (fold increase in extracellular AK activity)) it was 0.6. In addition, the fold induction at 50 µM in assay [7] (planktonic, […], read-out: AK-based Prestwick Library Screening Results, S. aureus (fold increase in extracellular AK activity)) was 0.7.

For the molecule `C=CCN1CCCC1CNC(=O)c1cc2[nH]nnc2cc1OC` (stereo not drawn) [Alizapride HCl], the fold induction at 50 µM in assay [1] (planktonic, cutoff for positive 3-fold increase, read-out: AK-based Prestwick Library Screening Results, E. cloacae (fold increase in extracellular AK activity)) amounted to 1.4; in assay [2] (planktonic, cutoff for positive 3-fold increase, read-out: AK-based Prestwick Library Screening Results, E. faecium (fold increase in extracellular AK activity)), 1; in assay [3] (planktonic, cutoff for positive 3-fold increase, read-out: AK-based Prestwick Library Screening Results, P. aeruginosa (fold increase in extracellular AK activity)), 1.1; in assay [4] (planktonic, cutoff for positive 3-fold increase, read-out: AK-based Prestwick Library Screening Results, A. baumannii (fold increase in extracellular AK activity)), 1.1; in assay [5] (planktonic, cutoff for positive 3-fold increase, read-out: AK-based Prestwick Library Screening Results, E. coli (fold increase in extracellular AK activity)), 1; in assay [6] (planktonic, cutoff for positive 3-fold increase, read-out: AK-based Prestwick Library Screening Results, K. pneumoniae (fold increase in extracellular AK activity)), 0.9. Also, the fold induction at 50 µM in assay [7] (planktonic, cutoff for positive 3-fold increase, read-out: AK-based Prestwick Library Screening Results, S. aureus (fold increase in extracellular AK activity)) stood at 1.

In the case of `CC(C)COCC(CN(Cc1ccccc1)c1ccccc1)N1CCCC1` (stereo not drawn) [Bepridil hydrochloride], the fold induction at 50 µM in assay [1] (planktonic E. cloacae, cutoff for positive-scoring molecules 3-fold increase, read-out: AK-based Prestwick Library Screening Results, E. cloacae (increase in extracellular AK activity)) was found to be 1.4; in assay [2] (planktonic E. faecium, cutoff for positive-scoring molecules 3-fold increase, read-out: AK-based Prestwick Library Screening Results, E. faecium (increase in extracellular AK activity)), 1.1; in assay [3] (planktonic P. aeruginosa, cutoff for positive-scoring molecules 3-fold increase, read-out: AK-based Prestwick Library Screening Results, P. aeruginosa (increase in extracellular AK activity)), 1.2; in assay [4] (planktonic A. baumannii, cutoff for positive-scoring molecules 3-fold increase, read-out: AK-based Prestwick Library Screening Results, A. baumannii (increase in extracellular AK activity)), 1.5; in assay [5] (planktonic E. coli, cutoff for positive-scoring molecules 3-fold increase, read-out: AK-based Prestwick Library Screening Results, E. coli (increase in extracellular AK activity)), 1.3; in assay [6] (planktonic K. pneumoniae, cutoff for positive-scoring molecules 3-fold increase, read-out: AK-based Prestwick Library Screening Results, K. pneumoniae (increase in extracellular AK activity)), 1. In addition, the fold induction at 50 µM in assay [7] (planktonic S. aureus, cutoff for positive-scoring molecules 3-fold increase, read-out: AK-based Prestwick Library Screening Results, S. aureus (increase in extracellular AK activity)) is 1.6.

On to `CC(C[N+](C)(C)C)OC(N)=O` (stereo not drawn) [Bethanechol chloride], for which the fold induction at 50 µM came out at 0.9 in assay [1] (setting [8]); 0.9 in assay [2] (setting [9]); 0.7 in assay [3] (setting [10]); 0.8 in assay [4] (setting [11]); 1 in assay [5] (setting [12]); 0.7 in assay [6] (setting [13]). In addition, in assay [7] (setting [14]), the fold induction at 50 µM was determined as 0.7.

Take `CC(=O)O[C@H]1C[C@H](O[C@H]2[C@@H](O)C[C@H](O[C@H]3[C@@H](O)C[C@H](O[C@H]4CC[C@@]5(C)[C@H](CC[C@@H]6[C@@H]5C[C@@H](O)[C@]5(C)[C@@H](C7=CC(=O)OC7)CC[C@]65O)C4)O[C@@H]3C)O[C@@H]2C)O[C@H](C)[C@H]1O[C@@H]1O[C@H](CO)[C@@H](O)[C@H](O)[C@H]1O` [Lanatoside C]: the “AK-based Prestwick Library Screening Results, E. cloacae (fold increase in extracellular AK activity)” value in assay [1] (planktonic, […]) came out at 1.0. For the same molecule, the “AK-based Prestwick Library Screening Results, E. faecium (fold increase in extracellular AK activity)” value in assay [2] (planktonic, […]) worked out at 0.9. Further, the “AK-based Prestwick Library Screening Results, P. aeruginosa (fold increase in extracellular AK activity)” value in assay [3] (planktonic, […]) is recorded as 0.6. Moreover, the “AK-based Prestwick Library Screening Results, A. baumannii (fold increase in extracellular AK activity)” value in assay [4] (planktonic, […]) stood at 0.8. In addition, the “AK-based Prestwick Library Screening Results, E. coli (fold increase in extracellular AK activity)” value in assay [5] (planktonic, […]) amounted to 0.6. For the same molecule, in assay [6] (planktonic, […]), the “AK-based Prestwick Library Screening Results, K. pneumoniae (fold increase in extracellular AK activity)” value was 0.6. Besides, the “AK-based Prestwick Library Screening Results, S. aureus (fold increase in extracellular AK activity)” value in assay [7] (planktonic, […]) was determined as 0.7.

As to `Cn1c([N+](=O)[O-])cnc1COC(N)=O` [Ronidazole], the fold induction at 50 µM in assay [1] (setting [8]) worked out at 1.6; in assay [2] (setting [9]), 1.1; in assay [3] (setting [10]), 1; in assay [4] (setting [11]) it was 1.6; in assay [5] (setting [12]), 1.1; in assay [6] (setting [13]), 1.7. In addition, the fold induction at 50 µM in assay [7] (setting [14]) amounted to 1.3.

With `CCOc1ccc2c(c1)C(C)=CC(C)(C)N2` [Ethoxyquin], the fold induction at 50 µM in assay [1] (setting [15]) was 1.4; in assay [2] (setting [16]) it was 0.9; in assay [3] (setting [17]) it was 1.1; in assay [4] (setting [18]), 0.9; in assay [5] (setting [19]), 1.1; in assay [6] (setting [20]) it was 0.9. Besides, the fold induction at 50 µM in assay [7] (setting [21]) amounted to 1.1.

In the case of Pizotifen malate, the “AK-based Prestwick library screening result, E. cloacae (fold increase in extracellular AK activity)” value in assay [1] (planktonic E. cloacae, positive cutoff 3-fold increase) amounted to 1.3. The “AK-based Prestwick library screening result, E. faecium (fold increase in extracellular AK activity)” value in assay [2] (planktonic E. faecium, positive cutoff 3-fold increase) stood at 1.0. In addition, the “AK-based Prestwick library screening result, P. aeruginosa (fold increase in extracellular AK activity)” value in assay [3] (planktonic P. aeruginosa, positive cutoff 3-fold increase) came out at 0.8. The “AK-based Prestwick library screening result, A. baumannii (fold increase in extracellular AK activity)” value in assay [4] (planktonic A. baumannii, positive cutoff 3-fold increase) turned out to be 0.8. Further, in assay [5] (planktonic E. coli, positive cutoff 3-fold increase), the “AK-based Prestwick library screening result, E. coli (fold increase in extracellular AK activity)” value stood at 1.0. Besides, the “AK-based Prestwick library screening result, K. pneumoniae (fold increase in extracellular AK activity)” value in assay [6] (planktonic K. pneumoniae, positive cutoff 3-fold increase) is reported as 0.7. In addition, in assay [7] (planktonic S. aureus, positive cutoff 3-fold increase), the “AK-based Prestwick library screening result, S. aureus (fold increase in extracellular AK activity)” value came out at 0.7.

As to `CC(O)Cn1cnc2c1c(=O)n(C)c(=O)n2C` (stereo not drawn) [Proxyphylline], the fold induction at 50 µM in assay [1] (setting [15]) is 0.5; in assay [2] (setting [16]) it was 0.9; in assay [3] (setting [17]), 0.5; in assay [4] (setting [18]), 0.6; in assay [5] (setting [19]), 0.5; in assay [6] (setting [20]) it was 0.5. Moreover, the fold induction at 50 µM in assay [7] (setting [21]) worked out at 0.5.
